Results from ChEMBL document CHEMBL4382194, “New Modalities, Technologies, and Partnerships in Probe and Lead Generation: Enabling a Mode-of-Action Centric Paradigm” (J Med Chem, 2018).
Blank lines part the entries; values can stand above or below the molecule they belong to. Numbered stars: 1 amine (or outer) side, 2 acyl side, 3 side chain; on linkers, the order of the positions; unused ones are H or OH. Bridge positions count the residues as written; N and C are the ends. Peptide text beside a SMILES is read from it. TBMB = c1c(C[*:1])cc(C[*:3])cc1C[*:2]

Legend:
80S Ribosome = assay: Inhibition of human 80S ribosome-mediated PCSK9 translation expressed in CHO-K1 cells assessed as reduction in PCSK9 secretion; type: cell-based
[1] = Modulation of full length SMN2 mRNA (unknown origin) splicing by luciferase reporter gene assay; design: species or system Homo sapiens
Homo sapiens [2] = organism: Homo sapiens; assay: Selectivity ratio of Ki for human MC1R expressed in HEK cell membranes to Ki for human MC4R expressed in HEK cell membranes; type: cell-based
Homo sapiens [3] = organism: Homo sapiens; assay: Selectivity ratio of Ki for human MC5R expressed in HEK cell membranes to Ki for human MC4R expressed in HEK cell membranes; type: cell-based
Homo sapiens [4] = organism: Homo sapiens; assay: Selectivity ratio of Ki for human MC2R expressed in HEK cell membranes to Ki for human MC4R expressed in HEK cell membranes; type: cell-based
Plasma kallikrein = Plasma kallikrein (Homo sapiens, UniProt P03952); assay: Binding affinity to human plasma kallikrein
[5] = biological target: T1, Epidermal growth factor receptor substrate 15 (Homo sapiens, UniProt P42566); assay: Inhibition of stonin-2 binding to Eps15 (unknown origin)
T1 sequence (P42566 whole entry): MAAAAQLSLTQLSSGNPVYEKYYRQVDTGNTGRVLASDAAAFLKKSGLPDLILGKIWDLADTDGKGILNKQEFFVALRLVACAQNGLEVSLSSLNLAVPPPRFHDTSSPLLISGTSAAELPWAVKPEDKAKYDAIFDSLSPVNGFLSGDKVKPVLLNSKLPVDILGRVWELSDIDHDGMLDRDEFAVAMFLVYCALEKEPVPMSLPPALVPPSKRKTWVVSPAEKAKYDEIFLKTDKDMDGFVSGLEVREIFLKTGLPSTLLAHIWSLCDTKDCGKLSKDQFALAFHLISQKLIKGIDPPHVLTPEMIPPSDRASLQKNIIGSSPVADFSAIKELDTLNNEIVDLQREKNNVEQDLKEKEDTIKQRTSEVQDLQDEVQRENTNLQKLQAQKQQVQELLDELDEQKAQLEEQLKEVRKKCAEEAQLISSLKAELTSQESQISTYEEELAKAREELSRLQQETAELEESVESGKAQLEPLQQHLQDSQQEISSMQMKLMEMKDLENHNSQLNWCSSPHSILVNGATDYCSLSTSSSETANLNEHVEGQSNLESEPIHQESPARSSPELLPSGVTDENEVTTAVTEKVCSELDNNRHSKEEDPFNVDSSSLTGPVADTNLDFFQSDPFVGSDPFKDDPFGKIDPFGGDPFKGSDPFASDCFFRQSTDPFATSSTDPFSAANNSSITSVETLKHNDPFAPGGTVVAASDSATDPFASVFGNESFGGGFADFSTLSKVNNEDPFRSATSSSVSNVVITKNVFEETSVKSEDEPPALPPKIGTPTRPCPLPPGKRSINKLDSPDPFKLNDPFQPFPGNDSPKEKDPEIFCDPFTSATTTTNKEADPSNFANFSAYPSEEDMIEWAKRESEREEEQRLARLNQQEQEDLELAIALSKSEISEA

Chain of Plasma kallikrein (P03952 20-390 limits assumed): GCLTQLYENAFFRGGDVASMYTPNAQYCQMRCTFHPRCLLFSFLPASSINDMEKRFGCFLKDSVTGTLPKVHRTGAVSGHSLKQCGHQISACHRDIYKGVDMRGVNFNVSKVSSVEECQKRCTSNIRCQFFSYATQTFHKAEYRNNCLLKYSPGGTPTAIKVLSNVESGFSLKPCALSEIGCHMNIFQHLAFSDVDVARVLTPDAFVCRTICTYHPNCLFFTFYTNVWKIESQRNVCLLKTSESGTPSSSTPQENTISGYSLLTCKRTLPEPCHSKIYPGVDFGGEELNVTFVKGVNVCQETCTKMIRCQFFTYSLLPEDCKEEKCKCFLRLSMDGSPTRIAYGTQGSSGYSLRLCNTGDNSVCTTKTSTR
Chain of Plasma kallikrein (P03952 391-638 limits assumed): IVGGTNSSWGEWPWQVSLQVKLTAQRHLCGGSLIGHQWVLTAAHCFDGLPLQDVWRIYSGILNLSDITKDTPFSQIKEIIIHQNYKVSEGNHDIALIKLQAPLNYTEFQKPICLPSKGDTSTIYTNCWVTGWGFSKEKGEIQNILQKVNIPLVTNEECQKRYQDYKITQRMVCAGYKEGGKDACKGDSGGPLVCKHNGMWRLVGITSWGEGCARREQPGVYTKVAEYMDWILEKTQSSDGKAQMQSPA

SMILES: CN(c1ccc(-c2ccc(-c3cn[nH]c3)cc2O)nn1)C1CC(C)(C)NC(C)(C)C1
EC50 [1]: 5 nM

SMILES: CC(C)C[C@@H]1NC(=O)CNC(=O)[C@H](CC(N)=O)NC(=O)[C@H](CCCNC(=N)N)NC(=O)[C@H]([C@@H](C)O)NC(=O)[C@@H]2CSSC[C@@H]3NC(=O)[C@H]([C@@H](C)O)NC(=O)CNC(=O)CNC(=O)[C@H](C(C)C)NC(=O)[C@@H]4CSSC[C@H](NC(=O)[C@H]([C@@H](C)O)NC(=O)[C@H](CSSC[C@H](NC(=O)[C@H](C(C)C)NC(=O)[C@@H]5CCCN5C1=O)C(=O)NCC(=O)N[C@@H](CCC(=O)O)C(=O)N[C@@H]([C@@H](C)O)C(=O)N4)NC(=O)CNC(=O)[C@@H]1CCCN1C(=O)[C@H]([C@@H](C)O)NC(=O)[C@H](CC(N)=O)NC3=O)C(=O)N[C@@H](CO)C(=O)N[C@@H](Cc1c[nH]c3ccccc13)C(=O)N1CCC[C@H]1C(=O)N[C@@H](C(C)C)C(=O)N2
Ratio Ki (Homo sapiens [2]): 100 to 300
Ratio Ki (Homo sapiens [3]): 100 to 300
Ratio Ki (Homo sapiens [4]): 100 to 300

Results, then the molecule that gave them:

EC50 (80S Ribosome): 2200 nM
SMILES: COc1ccc(CCC(=O)N(c2nccc3c2CC=CC3)[C@@H]2CCCNC2)cc1

Kd (Plasma kallikrein): 20 nM
SMILES: CC(C)C[C@@H]1NC(=O)[C@H](C)NC(=O)[C@H](CCC(=O)O)NC(=O)[C@H](CC(=O)O)NC(=O)[C@H](C)NC(=O)[C@@H]2CCCN2C(=O)[C@@H]2CSCc3cc(cc(c3)CSC[C@@H](C(=O)NCC(=O)O)NC1=O)CSC[C@H](NC(=O)[C@H](C)N)C(=O)N[C@@H](CO)C(=O)N[C@@H](CC(=O)O)C(=O)N[C@@H](CCCNC(=N)N)C(=O)N[C@@H](Cc1ccccc1)C(=O)N[C@@H](CCCNC(=N)N)C(=O)N[C@@H](CC(N)=O)C(=O)N2 (H-ACSDRFRNCPADEALCG-OH; linker 2-9-16 via TBMB)

Kd [5]: 370 nM
SMILES: C[C@@H]1NC(=O)[C@H](CCCNC(=N)N)NC(=O)[C@H](Cc2c[nH]c3ccccc23)NC(=O)[C@@H]2CCCN2C(=O)[C@H](N)CSCc2cccc(c2)CSC[C@@H](C(=O)O)NC(=O)[C@H](Cc2ccccc2)NC(=O)[C@@H]2CCCN2C(=O)[C@H](CC(N)=O)NC(=O)[C@H]([C@@H](C)O)NC1=O
